In ChEMBL document CHEMBL4043158, “Synthesis and carbonic anhydrase inhibition of polycyclic imides incorporating N-benzenesulfonamide moieties” (Bioorg Med Chem, 2017):

Molecular target: Carbonic anhydrase 9 (Homo sapiens, UniProt Q16790)
Experiment: Inhibition of human CA9 pre-incubated for 10 mins by stopped-flow CO2 hydrase assay

`NS(=O)(=O)c1ccc(CN2C(=O)c3cccc4cccc(c34)C2=O)cc1` gave a Ki of 108 nM.
`NS(=O)(=O)c1ccc(N2C(=O)c3cccc4cccc(c34)C2=O)cc1` showed a Ki of 287 nM.
Work on `NS(=O)(=O)c1ccc(CCN2C(=O)c3cccc4cc([N+](=O)[O-])cc(c34)C2=O)cc1` yielded a Ki of 242 nM.
`NS(=O)(=O)c1ccc(CN2C(=O)c3cccc4cc([N+](=O)[O-])cc(c34)C2=O)cc1` gave a Ki of 251 nM.
`NS(=O)(=O)c1ccc(CCn2c(=O)c3cc4c(=O)n(CCc5ccc(S(N)(=O)=O)cc5)c(=O)c4cc3c2=O)cc1` gave a Ki of 2050 nM.
For `NS(=O)(=O)c1ccc(N2C(=O)c3cccc4cc([N+](=O)[O-])cc(c34)C2=O)cc1`, the Ki was 218 nM.
Compound `NS(=O)(=O)c1ccc(-n2c(=O)c3ccccc3c3ccccc3c2=O)cc1` has a Ki of 93.1 nM.
`NS(=O)(=O)CCN1C(=O)c2ccc3c4c(ccc(c24)C1=O)C(=O)N(CCc1ccc(S(N)(=O)=O)cc1)C3=O` gave a Ki of 25.5 nM.
`NS(=O)(=O)c1ccc(-n2c(=O)c3cc4c(=O)n(-c5ccc(S(N)(=O)=O)cc5)c(=O)c4cc3c2=O)cc1` showed a Ki of 251 nM.
In the case of `NS(=O)(=O)c1ccc(N2C(=O)c3ccc4c5c(ccc(c35)C2=O)C(=O)N(c2ccc(S(N)(=O)=O)cc2)C4=O)cc1`, the Ki is reported as 23.9 nM.
`NS(=O)(=O)c1ccc(Cn2c(=O)c3cc4c(=O)n(Cc5ccc(S(N)(=O)=O)cc5)c(=O)c4cc3c2=O)cc1` was tested, and the Ki was 639 nM.
In the case of `NS(=O)(=O)c1ccc(CN2C(=O)c3ccc4c5c(ccc(c35)C2=O)C(=O)N(Cc2ccc(S(N)(=O)=O)cc2)C4=O)cc1`, the Ki is reported as 2780 nM.
With `NS(=O)(=O)c1ccc(CCN2C(=O)c3cccc4cccc(c34)C2=O)cc1` the Ki was 108 nM.
`NS(=O)(=O)c1ccc(CCn2c(=O)c3ccccc3c3ccccc3c2=O)cc1` gave a Ki of 301 nM.
In the case of `NS(=O)(=O)c1ccc(Cn2c(=O)c3ccccc3c3ccccc3c2=O)cc1`, the Ki is reported as 191 nM.
